Here are results for 17 molecules from patent US7002015B2, “3-Thia-4-arylquinolin-2-one derivatives as smooth muscle relaxants” (Bristol-Myers Squibb Company, priority 2003, dated 2006).

Holding throughout (type): cell-based
Assay [1] deals with cloned mammalian (mSlo or hSlo) BK. Kind of assay: Assay for BK channel openers: two-electrode voltage clamp of BK-mediated outward current in Xenopus oocytes. The conditions noted are these: percent of control IBTX-sensitive current at +140 mV; 20 μM (or as otherwise indicated); 5–10 oocytes. How it is done: The ability of the compounds of the invention to open BK channels and increase whole-cell outward (K^+) BK-mediated currents was assessed under voltage-clamp conditions by determining their ability to increase cloned mammalian (mSlo or hSlo) BK-mediated outward current heterologously expressed in Xenopus oocytes [Butler, A., et al., Science 1993, 261, 221–224; Dworetzky, S. I., et al., Mol. Brain Res. 1994, 27, 189–193; Gribkoff, V. K., et al., Mol. Pharmacol. 1996, 50, 206–217]. The two BK constructs employed represent nearly structurally identical homologous proteins, and have proven to be pharmacologically indistinguishable in our tests. To isolate BK current from native (background, non-BK) current, the specific and potent BK channel-blocking toxin iberiotoxin (IBTX) [Galvez, A., et al., J. Biol. Chem. 1990, 265, 11083–11090] was employed at a supramaximal concentration, e.g., 50–100 nanomolar (“nM”). The relative contribution of BK channel-mediated current to total outward current was determined by subtraction of the current remaining in the presence of IBTX (non-BK current) from the current profiles obtained in all other experimental conditions (control, drug, and wash) [Gribkoff, V. K. et al., Mol. Pharmacol. 1996, 50, 206–217]. […] All compounds were tested in 5–10 oocytes and are reported at the indicated concentration of 20 micromolar (“μM”) (or as otherwise indicated); the effect of the selected compounds of the invention on BK current was expressed as the percent of control IBTX-sensitive current at a single transmembrane voltage (+140 mV) and is listed in Table 1. Recordings were accomplished using standard two-electrode voltage clamp techniques [Stuhmer, W., et al., Methods in Enzymology, 1992, 207, 319–339]; voltage-clamp protocols consisted of 500–750 milliseconds (“ms”) duration step depolarizations, from a holding potential of −60 mV, to a final voltage up to +140 mV in 20 mV steps. The experimental media (modified Barth's solution) consisted of millimolar (“mM”): NaCl (88), NaHCO3 (2.4), KCl (1.0), HEPES (10), MgSO4 (0.82), Ca(NO3)2 (0.33), CaCl2 (0.41); pH 7.5.
Background: In two-electrode clamp one electrode senses voltage and the other passes current.

The subject of assay [2] is rabbit corpus cavernosum tissue. Description: Rabbit corpus cavernosum strips: relaxation of phenylephrine-induced force. The conditions noted are these: Oryctolagus cuniculus, inhibition of phenylephrine (3 μM)-induced force as compared to vehicle control, read-out: % Inhibition of force (RCC strips). The method, then: The ability of the compounds of the invention to relax rabbit corpus cavernosum tissue as a model for the treatment of erectile dysfunction is described as follows. New Zealand white rabbits (3.4–3.7 kg) were euthanized by sodium pentobarbital (100 mg/kg) overdose. The penis from each animal was rapidly removed and immersed in a cold oxygenated modified Krebs Henseleit bicarbonate buffer. The penis' outer tunica was removed and the corpus cavernosum smooth muscle obtained and cut into strips approximately 3–5 mm long. The strips were suspended in tissue baths containing physiological salt solution (see above), and allowed to equilibrate for at least one hour under resting tension of 1.0 gram. Isometric force was measured as described above. Tissue strips were stimulated with the α-agonist phenylephrine (3 μM) and allowed to reach a steady level of force prior to the addition of test compounds. The results are expressed as the percentage inhibition of phenylephrine-induced force as compared to vehicle control.

Assay [3] relates to rat small intestine tissue. Description: Rat small intestine (ileum) segments: inhibition of nifedipine-sensitive force. Set-up: concentration or dose not given beside the values. The conditions noted are these: integral of nifedipine-sensitive force pre- and 30 min post-compound. The text has this: The ability of the compounds of the invention to relax rat small intestine tissue as a model for the treatment of irritable bowel syndrome is described as follows. Male rats (Harlan, Sprague Dawley, 250–350 g) were sacrificed by decapitation. A portion of small intestine (ileum) was removed and the attached connective tissues and intestinal contents removed. The ileum was cut into segments of ≦1 cm in length. The segments were mounted longitudinally between fixed hooks in organ baths containing warm (37° C.) physiological salt solution (composition in mM: NaCl 118.4, KCl 4.7, KH2PO4 1.2, MgSO4 1.2, CaCl2 1.8, Glucose 10.1, NaHCO3 25; gassed with 95% O2/5% CO2, pH 7.4). A stable tension of ˜1.5 g was maintained in the tissue segments during the equilibration period of 45 minutes. Changes in muscle tension were measured with isometric force transducers (Grass, FT-03C) and recorded using AcqKnowledge data acquisition system (AcqKnowledge for MP100WS, Biopac Systems Inc., Goleta, Calif.). Compound or vehicle was added in the baths for 30 minutes. “Zero” active force was established at the end of the experiment using nifedipine (20 μM). The effects of compounds or vehicle on force was determined by measuring the integral of nifedipine-sensitive force (including resting tone and spontaneous contractions) pre- and 30 min post-compound (or vehicle) addition. Results are expressed as the percentage inhibition of force. DMSO vehicle inhibited force (integral) by −0.6±3.0% (n=25).

Structures are written as SMILES.

On to `O=C(CCN1CCN(CCO)CC1)CSc1c(-c2cc(Cl)ccc2O)c2cc(C(F)(F)F)ccc2[nH]c1=O` [Example 21, 4-(5-Chloro-2-hydroxyphenyl)-3-[[4-[4-(2-hydroxyethyl)-1-piperazinyl]-2-oxobutyl]thio]-6-(trifluoromethyl)-2(1H)-quinolinone], for which the “% MaxiK opening*” value in assay [1] is 241%.
On to `NC(=O)C1CCN(C(=O)CSc2c(-c3cc(Cl)ccc3O)c3cc(C(F)(F)F)ccc3[nH]c2=O)CC1` [Example 105, 1-[[[4-(5-Chloro-2-hydroxyphenyl)-1,2-dihydro-2-oxo-6-(trifluoromethyl)-3-quinolinyl]thio]acetyl]-4-piperidinecarboxamide], for which the “% MaxiK opening*” value in assay [1] is 203%. In addition, the inhibition in assay [2] came out at 67%. In assay [3], the “% Inhibition of force (RSI strips)” value is recorded as 62%.
As for `CC1CCCN(CCCC(=O)CSc2c(-c3cc(Cl)ccc3O)c3cc(C(F)(F)F)ccc3[nH]c2=O)C1` (stereo not drawn) [Example 65, 4-(5-Chloro-2-hydroxyphenyl)-3-[[5-(3-methyl-1-piperidinyl)-2-oxopentyl]thio]-6-(trifluoromethyl)-2(1H)-quinolinone], the “% MaxiK opening*” value in assay [1] is 271%.
As to `CC1CCN(CCCC(=O)CSc2c(-c3cc(Cl)ccc3O)c3cc(C(F)(F)F)ccc3[nH]c2=O)CC1` [Example 66, 4-(5-Chloro-2-hydroxyphenyl)-3-[[5-(4-methyl-1-piperidinyl)-2-oxopentyl]thio]-6-(trifluoromethyl)-2(1H)-quinolinone], the “% MaxiK opening*” value in assay [1] is recorded as 213%.
For the molecule `CN1CCC(N(C)CCCC(=O)CSc2c(-c3cc(Cl)ccc3O)c3cc(C(F)(F)F)ccc3[nH]c2=O)C1` (stereo not drawn) [Example 68, 4-(5-chloro-2-hydroxyphenyl)-3-[[5-[methyl(1-methyl-3-pyrrolidinyl)amino]-2-oxopentyl]thio]-6-(trifluoromethyl)-2(1H)-quinolinone], the “% MaxiK opening*” value in assay [1] is 226%.
Take `O=C(CCCN1CCC(N2CCCCC2)CC1)CSc1c(-c2cc(Cl)ccc2O)c2cc(C(F)(F)F)ccc2[nH]c1=O` [Example 72, 3-[(5-[1,4′-Bipiperidin]-1′-yl-2-oxopentyl)thio]-4-(5-chloro-2-hydroxyphenyl)-6-(trifluoromethyl)-2(1H)-quinolinone]: the “% MaxiK opening*” value in assay [1] is 298%.
As for `CCOC(=O)CN1CCN(C(=O)CSc2c(-c3cc(Cl)ccc3O)c3cc(C(F)(F)F)ccc3[nH]c2=O)CC1` [Example 107, 4-[[[4-(5-Chloro-2-hydroxyphenyl)-1,2-dihydro-2-oxo-6-(trifluoromethyl)-3-quinolinyl]thio]acetyl]-1-piperazineacetic acid, ethyl ester], in assay [1], the “% MaxiK opening*” value was determined as 281%. Also, the inhibition in assay [2] turned out to be 19%. For the same molecule, the “% Inhibition of force (RSI strips)” value in assay [3] is 46%.
Regarding `CN(C)C1CCN(C(=O)CSc2c(-c3cc(Cl)ccc3O)c3cc(C(F)(F)F)ccc3[nH]c2=O)CC1` [Example 5, 4-(5-Chloro-2-hydroxy-phenyl)-3-[2-(4-dimethylamino-piperidin-1-yl)-2-oxo-ethylsulfanyl]-6-trifluoromethyl-1H-quinolin-2-one], the “% MaxiK opening*” value in assay [1] turned out to be 286%. The inhibition in assay [2] was found to be 34.5%. In assay [3], the “% Inhibition of force (RSI strips)” value came to 58.5%.
As for `CN(C)CCCN(C)CCC(=O)CSc1c(-c2cc(Cl)ccc2O)c2cc(C(F)(F)F)ccc2[nH]c1=O` [Example 35, 4-(5-Chloro-2-hydroxyphenyl)-3-[[4-[[3-(dimethylamino)propyl]methylamino]-2-oxobutyl]thio]-6-(trifluoromethyl)-2(1H)quinolinone], in assay [1], the “% MaxiK opening*” value is 178%.
`O=C(CCN1CCCC1)CSc1c(-c2cc(Cl)ccc2O)c2cc(C(F)(F)F)ccc2[nH]c1=O` [Example 2, 4-(5-Chloro-2-hydroxy-phenyl)-3-(2-oxo-4-pyrrolidin-1-yl-butylsulfanyl)-6-trifluoromethyl-1H-quinolin-2-one]: the “% MaxiK opening*” value in assay [1] amounted to 335%. Besides, the inhibition in assay [2] is 30%.
The like results for `CN1CCN(C(=O)CSc2c(-c3cc(Cl)ccc3O)c3cc(C(F)(F)F)ccc3[nH]c2=O)CC1` [Example 84, 1-[[[4-(5-Chloro-2-hydroxyphenyl)-1,2-dihydro-2-oxo-6-(trifluoromethyl)-3-quinolinyl]thio]acetyl]-4-methylpiperazine] were, in that order, 422% and 14.4%.
As to `O=C(CCN1CCC(O)CC1)CSc1c(-c2cc(Cl)ccc2O)c2cc(C(F)(F)F)ccc2[nH]c1=O` [Example 30, 4-(5-Chloro-2-hydroxyphenyl)-3-[[4-(4-hydroxy-1-piperidinyl)-2-oxobutyl]thio]-6-(trifluoromethyl)-2(1H)-quinolinone], the “% MaxiK opening*” value in assay [1] came out at 235%.
As for `O=C(CSc1c(-c2cc(Cl)ccc2O)c2cc(C(F)(F)F)ccc2[nH]c1=O)N1CCN(CCOCCO)CC1` [Example 98, 2-[2-[4-[[[4-(5-Chloro-2-hydroxyphenyl)-1,2-dihydro-2-oxo-6-(trifluoromethyl)-3-quinolinyl]thio]acetyl]-1-piperazinyl]ethoxy]ethanol], the “% MaxiK opening*” value in assay [1] stood at 205%. Further, the inhibition in assay [2] amounted to 17%. Moreover, in assay [3], the “% Inhibition of force (RSI strips)” value amounted to 9%.
On to `CC(=O)N1CCN(CCCC(=O)CSc2c(-c3cc(Cl)ccc3O)c3cc(C(F)(F)F)ccc3[nH]c2=O)CC1` [Example 63, 1-Acetyl-4-[5-[[4-(5-chloro-2-hydroxyphenyl)-1,2-dihydro-2-oxo-6-(trifluoromethyl)-3-quinolinyl]thio]-4-oxopentyl]piperazine], for which the “% MaxiK opening*” value in assay [1] amounted to 284%.
With `O=C(CCN1CCCCC1)CSc1c(-c2cc(Cl)ccc2O)c2cc(C(F)(F)F)ccc2[nH]c1=O` [Example 7, 4-(5-Chloro-2-hydroxyphenyl)-3-[[2-oxo-4-(1-piperidinyl)butyl]thio]-6(trifluoromethyl)-2(1H)-quinolinone], the “% MaxiK opening*” value in assay [1] is 199%. Also, the “% Inhibition of force (RSI strips)” value in assay [3] worked out at 29%.
With `O=C(CSc1c(-c2cc(Cl)ccc2O)c2cc(C(F)(F)F)ccc2[nH]c1=O)N1CCN(CCO)CC1` [Example 103, 4-[[[4-(5-Chloro-2-hydroxyphenyl)-1,2-dihydro-2-oxo-6-(trifluoromethyl)-3-quinolinyl]thio]acetyl]-1-piperazineethanol], in assay [1], the “% MaxiK opening*” value is 151%. In addition, the inhibition in assay [2] was 22%. The “% Inhibition of force (RSI strips)” value in assay [3] came to 22.5%.
`CN1CCN(CCC(=O)CSc2c(-c3cc(Cl)ccc3O)c3cc(C(F)(F)F)ccc3[nH]c2=O)CC1` [Example 3, 4-(5-Chloro-2-hydroxy-phenyl)-3-[4-(4-methyl-piperazin-1-yl)-2-oxo-butylsulfanyl]-6-trifluoromethyl-1H-quinolin-2-one]: the “% MaxiK opening*” value in assay [1] is reported as 550%.

Broadly, the inhibition is the drop in the measured response relative to a control, in per cent.
